These are literature values, as cited in patent US20090182041A1, “CONTROL OF CANCER WITH ANNONACEOUS EXTRACTS” (NATURE'S SUNSHINE PRODUCTS, INC., priority 2002, published 2009).

Series [1] concerns mitochondrial complex I (NADH: ubiquinone oxidoreductase). The note with it: substantially purified form.
For series [2], the system named is NADH oxidase found in the plasma membranes of tumor cells. The note with it: substantially purified form.

Take `CCCCCCCCCC[C@@H](O)[C@H]1CC[C@@H]([C@H]2CC[C@H]([C@H](O)CCCCCCCCCC[C@@H](O)CC3=C[C@H](C)OC3=O)O2)O1` [trilobacin]: the “inhibition of complex I in the electron transport system in mitochondria” value (“inhibition of complex I” below) in series [1] was “most powerful inhibitors known”. In addition, in series [2], the “inhibition of NADH oxidase in the plasma membranes of tumor cells” value (“inhibition of NADH oxidase” for short) is recorded as “inhibit”.

In the case of asimicin, in series [1], the “inhibition of complex I” value was “most powerful inhibitors known”. In addition, the “inhibition of NADH oxidase” value in series [2] was “inhibit”.

As for bullatacin, the “inhibition of complex I” value in series [1] was “most powerful inhibitors known”. In series [2], the “inhibition of NADH oxidase” value is “inhibit”.
